Measurements taken from patent US20240226332A9, “GENE THERAPY FOR TREM2-ASSOCIATED DISEASES AND DISORDERS” (Eli Lilly and Company, priority 2022, published 2024).

Key:
iPSC-derived microglia = experiment: Pharmacological CSF1R-inhibition (PLX3397) cell viability assay in human iPSC-derived microglia; assay type: cell-based; conditions: 150 nM or 200 nM PLX3397 in 0.1% DMSO, 8 hr, colorimetric viability kit
Experimental: Methods: The iPSC-derived microglia as described in Example 4 either were treated with excipient (negative control) or were transduced with a rAAV vector having a TREM2 transgene (SEQ ID NO:26) encapsidated in AAV6TM capsid protein (SEQ ID NO:19) at a MOI of 2.0×10^3 vg/cell. 7 days post-transduction, 150 nM or 200 nM of PLX3397 in 0.1% DMSO was added to the cell culture media and incubated for additional 8 hr at 37° C. and 5% CO2. After this period of incubation, cells were assayed for viability using a colorimetric kit (Abcam).

[1] = test system: CSF1R-inhibition mouse model (WT C57BL/6 mice fed PLX-chow); experiment: In vivo efficacy of TREM2 rAAV in CSF1R-inhibition (PLX) mouse model for CRL
Experimental: The rAAV was injected at a dose of either 1.8×10^10 vg (4.49×10^10 vg/g brain) or 1.8×10^11 vg (4.49×10^11 vg/g brain), respectively. Vector particles per g brain weight was based on an adult mouse brain weight of 400 mg. At 8 weeks of age (i.e., 4 weeks post-ICV injection), 1 excipient-treated group and both dose-treated groups were fed with PLX-containing mouse chow. Mice were fed with PLX-chow at 185 mg/kg for 1 week and then sacrificed at 9 weeks of age (i.e., 5 weeks post-ICV injection).
Biodistribution was determined by measuring vg presence using ddPCR (with >50 vg/1 μg gDNA defined as positive).

FC(F)(F)c1ccc(CNc2ccc(Cc3c[nH]c4ncc(Cl)cc34)cn2)cn1 [PLX]
cell death (cytotoxicity of PLX treatment) (iPSC-derived microglia): about 80% | number of IBA1+ microglia in brain ([1]; PLX-chow 185 mg/kg for 1 week, either dose of rAAV+PLX compared to excipient+PLX): almost complete depletion of microglia throughout the brain | expression of homeostatic microglia genes (P2RY12, HEXB) ([1]; PLX-chow 185 mg/kg for 1 week, rAAV+PLX): decreased expression of genes associated with homeostatic microglia | CSF1R expression (mRNA; protein) ([1]; PLX-chow 185 mg/kg for 1 week, rAAV+PLX (both doses) compared to excipient+PLX): apparent at both the mRNA and protein level | expression of disease associated microglia (DAM) genes (CCL12, CD48, CD68, LYZ1, PTPRC) ([1]; excipient+PLX, rAAV+PLX compared to excipient-only): significant decrease in expression
